SMILES strings stand for the structures. Numbered stars: 1 amine (or outer) side, 2 acyl side, 3 side chain; on linkers, the order of the positions; unused ones are H or OH. Square brackets hold non-standard residues; d marks the D form. Peptide text beside a SMILES is read from it. * marks the point of attachment. X1 = N=C(N)NCCC[C@@H](NC[C@H](Cc1ccccc1)N*)C(=O)O; X4 = NCCCC[C@@H](CN1CCC[C@H]1C(=O)[*:2])N[*:1]; X2 = CN(CCCCC(Cc1ccccc1)C(=O)[*:2])[*:1]; X3 = CN(C(CCCc1ccccc1)C(=O)[*:2])[*:1]; d(β3hF) = N[C@@H](CC(=O)O)Cc1ccccc1; NMeCha = CN[C@@H](CC1CCCCC1)C(=O)O; NMeF = CN[C@@H](Cc1ccccc1)C(=O)O; NMeGABA = CN(CCCC(=O)[*:2])[*:1]; Cha = N[C@@H](CC1CCCCC1)C(=O)O; dCha = N[C@H](CC1CCCCC1)C(=O)O; NMeA = CN[C@@H](C)C(=O)O; Nle = CCCC[C@H](N)C(=O)O; Aze = O=C(O)[C@@H]1CCN1; Ahx = NCCCCCC(=O)O; βAla = NCCC(=O)O; Sar = CNCC(=O)O

Drawing on US5387671A, “Hexa- and heptapeptide anaphylatoxin-receptor ligands” (Abbott Laboratories, priority 1990, dated 1995), this text covers Ki for 19 compounds.

The assay concerns the target T1, C5a Receptor (Homo sapiens, UniProt P21730).
T1 construct: 2.5-25 ug/mL of purified PMNL membrane fragments; endogenous in cells; host or cells: PMNL (polymorphonuclear leukocytes), purified membrane fragments
T1 sequence (P21730 1-350): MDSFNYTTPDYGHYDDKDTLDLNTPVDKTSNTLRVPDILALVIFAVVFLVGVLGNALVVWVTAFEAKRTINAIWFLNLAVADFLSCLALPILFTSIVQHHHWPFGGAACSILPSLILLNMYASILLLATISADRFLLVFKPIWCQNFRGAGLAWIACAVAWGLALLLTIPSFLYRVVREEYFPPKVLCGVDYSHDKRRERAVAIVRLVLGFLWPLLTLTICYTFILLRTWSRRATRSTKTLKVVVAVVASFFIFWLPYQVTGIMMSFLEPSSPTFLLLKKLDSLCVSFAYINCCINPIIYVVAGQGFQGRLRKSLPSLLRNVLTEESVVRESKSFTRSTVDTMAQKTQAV
In words: Anaphylatoxin Receptor Binding Ki Determination (inhibition of 125I-C5a binding to PMNL membrane fragments). Conditions: 0.03-1 nM 125I-C5a; 2.5-25 ug/mL purified PMNL membrane fragments; filtration; read-out: In vitro C5a Receptor Binding Potency Ki. The text has this:
Free and membrane-bound ligand were separated by filtration.

As for `C[C@H](NC(=O)[C@H](CCCCN)NC(=O)[C@@H](N)Cc1ccccc1)C(=O)N[C@@H](CC1CCCCC1)C(=O)NCCCCCC(=O)N[C@@H](CCCNC(=N)N)C(=O)O` [Example 10, H-Phenylalanyl-Lysyl-Alanyl-{(2S)-2-Amino-3-cyclohexylpropanoyl}-{6-Aminohexanoyl}-Arginyl-OH] (H-FKA[Cha][Ahx]R-OH), the inhibition constant (Ki) (in general, a measure of affinity in units of concentration, obtained from inhibition or displacement) stood at 85000 nM.
For `CN[C@@H](Cc1ccccc1)C(=O)N[C@@H](CCCCN)C(=O)N1CCC[C@H]1C(=O)N[C@H](CC1CCCCC1)C(=O)N[C@@H](Cc1ccccc1)C(C)N[C@@H](CCCNC(=N)N)C(=O)O` (mixture of isomers) [Example 143, (N-Methyl)Phenylalanyl-Lysyl-Prolyl-{(2R)-2-Amino-3-cyclohexylpropanoyl}-Phenylalanyl-.PSI.{(R/S)CH(CH3)NH}-Arginyl-OH], the Ki amounted to 4200 nM.
In the case of `N=C(N)NCCC[C@@H](NC(=O)[C@H](CC1CCCCC1)NC(=O)[C@@H](CC1CCCCC1)NC(=O)[C@@H]1CCN1C(=O)[C@H](CCCCN)NC(=O)[C@@H](N)Cc1ccccc1)C(=O)O` [Example 43, H-Phenylalanyl-Lysyl-{(2S)-Azetidine-2-carbonyl}-{(2R)-2-Amino-3-cyclohexylpropanoyl}-{(2S)-2-Amino-3-cyclohexylpropanoyl}-DArginyl-OH] (H-FK[Aze][dCha][Cha][dR]-OH), the Ki stood at 23 nM.
Under `C[C@H](NC(=O)[C@H](CCCCN)NC(=O)[C@@H](N)Cc1ccccc1)C(=O)N[C@@H](CC1CCCCC1)C(=O)NCCC(=O)N[C@H](CCCNC(=N)N)C(=O)O` [Example 19, H-Phenylalanyl-Lysyl-Alanyl-{(2S)-2-Amino-3-cyclohexylpropanoyl}-{3-Aminopropanoyl}-DArginyl-OH] (H-FKA[Cha][βAla][dR]-OH) stands 130000 nM.
Regarding `CN[C@@H](Cc1ccccc1)C(=O)N[C@@H](CCCCN)C(=O)N1CCC[C@H]1C(=O)N[C@H](CC1CCCCC1)C(=O)N[C@@H](Cc1ccccc1)C(=O)N[C@@H](CC(=O)O)Cc1ccccc1` [Example 170, (N-Methyl)Phenylalanyl-Lysyl-Prolyl-{(2R)-2-Amino-3-cyclohexylpropanoyl}-Phenylalanyl-{(3R)-Amino-4-phenylbutanoic acid}] (H-[NMeF]KP[dCha]F[d(β3hF)]-OH), the inhibition constant (Ki) was 2600 nM.
For the compound `CC(C)C[C@H](NC(=O)[C@H](CC1CCCCC1)NC(=O)CCNC(=O)[C@H](CCCCN)NC(=O)[C@@H](N)Cc1ccccc1)C(=O)N[C@H](C)C(=O)N[C@@H](CCCNC(=N)N)C(=O)O` [Example 7, H-Phenylalanyl-Lysyl-{3-Aminopropanoyl}-{(2S)-2-Amino-3-cyclohexylpropanoyl}-Leucyl-DAlanyl-Arginyl-OH] (H-FK[βAla][Cha]L[dA]R-OH), the inhibitory constant (Ki) was determined as 2200 nM.
As for `CC(C)C[C@H](NC(=O)[C@H](CC1CCCCC1)NC(=O)[C@H](C)N(C)C(=O)[C@H](CCCCN)NC(=O)[C@@H](N)Cc1ccccc1)C(=O)N[C@H](C)C(=O)N[C@@H](CCCNC(=N)N)C(=O)O` [Example 17, H-Phenylalanyl-Lysyl-(N-Methyl)Alanyl-{(2S)-2-Amino-3-cyclohexylpropanoyl}-Leucyl-DAlanyl-Arginyl-OH] (H-FK[NMeA][Cha]L[dA]R-OH), the Ki was found to be 2500 nM.
In the case of `CN[C@@H](Cc1ccccc1)C(=O)N[C@@H](CCCCN)CN1CCC[C@H]1C(=O)N[C@H](CC1CCCCC1)C(=O)N[C@@H](CC1CCCCC1)C(=O)N[C@H](CCCNC(=N)N)C(=O)O` [Example 79, (N-Methyl)Phenylalanyl-Lysyl-.PSI.{CH2 NH}-Prolyl-{(2R)-2-Amino-3-cyclohexylpropanoyl}-{(2S)-2-Amino-3-cyclohexylpropanoyl}-DArginyl-OH] (H-[NMeF][X4][dCha][Cha][dR]-OH), the inhibition constant (Ki) was 14500 nM.
As for `CN[C@@H](Cc1ccccc1)C(=O)N[C@@H](CCCCN)C(=O)N1CCC[C@H]1CN[C@H](CC1CCCCC1)C(=O)N[C@@H](Cc1ccccc1)C(=O)N[C@H](CCCNC(=N)N)C(=O)O` [Example 103], the Ki was found to be 360 nM.
`CN[C@@H](Cc1ccccc1)C(=O)N[C@@H](CCCCN)C(=O)N(C)[C@@H](C)C(=O)N[C@H](CC1CCCCC1)C(=O)N[C@@H](CC1CCCCC1)C(=O)N[C@H](CCCNC(=N)N)C(=O)O` [Example 34, (N-Methyl)Phenylalanyl-Lysyl-(N-Methyl)Alanyl-{(2R)-2-Amino-3-cyclohexylpropanoyl}-{(2S)-2-Amino-3-cyclohexylpropanoyl}-DArginyl-OH] (H-[NMeF]K[NMeA][dCha][Cha][dR]-OH): the Ki was found to be 34 nM.
To `CC(C)C[C@H](NC(=O)[C@H](CCC(N)=O)NC(=O)CCCCCNC(=O)[C@@H](N)Cc1c[nH]cn1)C(=O)NCC(=O)N[C@@H](CCCNC(=N)N)C(=O)O` [Example 4, H-Histidyl-{6-Aminohexanoyl}-Glutaminyl-Leucyl-Glycyl-Arginyl-OH] (H-H[Ahx]QLGR-OH) belongs 180000 nM.
Regarding `CN[C@@H](Cc1ccccc1)C(=O)N[C@@H](CCCCN)C(=O)N(C)[C@@H](Cc1ccccc1)C(=O)N[C@H](CC1CCCCC1)C(=O)N[C@@H](CC1CCCCC1)C(=O)N[C@H](CCCNC(=N)N)C(=O)O` [Example 61, (N-Methyl)Phenylalanyl-Lysyl-(N-Methyl)Phenylalanyl-{(2R)-2-Amino-3-cyclohexylpropanoyl}-{(2S)-2-Amino-3-cyclohexylpropanoyl}-DArginyl-OH] (H-[NMeF]K[NMeF][dCha][Cha][dR]-OH), the Ki was found to be 220 nM.
For `CCCC[C@H](NC(=O)[C@H](Cc1ccccc1)NC)C(=O)N(C)[C@@H](C)C(=O)N[C@H](CC1CCCCC1)C(=O)N[C@@H](CC1CCCCC1)C(=O)N[C@H](CCCNC(=N)N)C(=O)O` [Example 62, (N-Methyl)Phenylalanyl-Norleucyl-(N-Methyl)Alanyl-{(2R)-2-Amino-3-cyclohexylpropanoyl}-{(2S)-2-Amino-3-cyclohexylpropanoyl}-DArginyl-OH] (H-[NMeF][Nle][NMeA][dCha][Cha][dR]-OH), the inhibition constant Ki amounted to 260 nM.
To `CN(CC(=O)N[C@H](CC1CCCCC1)C(=O)N[C@@H](CC1CCCCC1)C(=O)N[C@H](CCCNC(=N)N)C(=O)O)C(=O)[C@H](CCCCN)NC(=O)[C@@H](N)Cc1ccccc1` [Example 56, H-Phenylalanyl-Lysyl-Sarcosyl-{(2R)-2-Amino-3-cyclohexylpropanoyl}-{(2S)-2-Amino-3-cyclohexylpropanoyl}-DArginyl-OH] (H-FK[Sar][dCha][Cha][dR]-OH) belongs 14 nM.
On to `CN[C@@H](Cc1ccccc1)C(=O)N[C@@H](CCCCN)C(=O)N(C)CCCCC(Cc1ccccc1)C(=O)N[C@@H](Cc1ccccc1)C(=O)N[C@H](CCCNC(=N)N)C(=O)O` (stereo partly shown) [Example 134] (H-[NMeF]K[X2]F[dR]-OH), for which the inhibition constant (Ki) is 6800 nM.
With `CN[C@@H](Cc1ccccc1)C(=O)N[C@@H](CCCCN)C(=O)N(C)C(CCCc1ccccc1)C(=O)N[C@H](CC1CCCCC1)C(=O)N[C@@H](Cc1ccccc1)C(=O)N[C@H](CCCNC(=N)N)C(=O)O` (stereo partly drawn) [Example 156, (N-Methyl)Phenylalanyl-Lysyl-{(2R/S)-2-Methylamino-5-phenylpentanoyl}-{(2R)-2-Amino-3-cyclohexylpropanoyl}-Phenylalanyl-DArginyl-OH] (H-[NMeF]K[X3][dCha]F[dR]-OH), the Ki is 660 nM.
Under `CN[C@@H](Cc1ccccc1)C(=O)N[C@@H](CCCCN)C(=O)N(C)CCCC(=O)N[C@@H](Cc1ccccc1)C(=O)N[C@H](CCCNC(=N)N)C(=O)O` [Example 121, (N-Methyl)Phenylalanyl-Lysyl-{4-(Methylamino)butanoyl}-Phenylalanyl-DArginyl-OH] (H-[NMeF]K[NMeGABA]F[dR]-OH) stands 21000 nM; under `C[C@H](NC(=O)[C@H](CCCCN)NC(=O)[C@@H](N)Cc1ccccc1)C(=O)N[C@H](CC1CCCCC1)C(=O)N(C)[C@@H](CC1CCCCC1)C(=O)N[C@H](CCCNC(=N)N)C(=O)O` [Example 40, H-Phenylalanyl-Lysyl-Alanyl-{(2R)-2-Amino-3-cyclohexylpropanoyl}-{(N-Methyl)(2S)-2-Amino-3cyclohexylpropanoyl}-DArginyl-OH] (H-FKA[dCha][NMeCha][dR]-OH), 590 nM; under `CN[C@@H](Cc1ccccc1)C(=O)N[C@@H](CCCCN)C(=O)N1CCC[C@H]1C(=O)N[C@H](CC1CCCCC1)C(=O)N[C@H](CN[C@H](CCCNC(=N)N)C(=O)O)Cc1ccccc1` [Example 2, (N-Methyl)Phenylalanyl-Lysyl-Prolyl-{(2R)-2-Amino-3-cyclohexylpropanoyl}-Phenylalanyl-.PSI.(CH2 NH)-DArginyl-OH] (H-[NMeF]KP[dCha]-X1), 1000 nM.
